From US20240158418A1 (C4 Therapeutics, Inc., priority 2021, published 2024)
pIC50: −log10 of the molar value. Read-outs that look alike come from different tables or passages of the source.

Assays:
[1] = system: BaF3 cells expressing EGFR L858R-C797S; assay: Ba/F3 EGFR cell viability (CellTiter-Glo), L858R-C797S; format: cell-based; conditions: Mus musculus, read-out: CTGlo (GI50)
Description: (§1) RPMI 1640 media, cell culture flasks, and 384-well microplates were purchased from VWR (Radnor, PA, USA). Fetal bovine serum (FBS) was purchased from Life Technologies (Carlsbad, CA, USA) and CellTiter-Glo® was purchased from Promega (Madison, WI, USA). The Ba/F3 parental cell line was purchased from CrownBio (Santa Clara, CA). BaF3 cell lines ectopically expressing the EGFR mutations L858R, L858R-T790M, L858R-C797S, and L858R-T790M-C797S were purchased from CrownBio and EGFR mutations L858R-L718Q, L858R-T790M-L718Q, L858R-L792H, and L858R-T790M-L792H, were purchased from Signosis (Santa Clara, CA).
(§2) Cell viability was assessed based on the quantification of ATP using the CellTiter-Glo® assay (Promega, Madison, WI, USA). To determine the effect of compounds on cell viability, all Ba/F3 cell lines were plated at a cell density of 2000 cells/well in 384-well plates using RPMI 1640+10% FBS and treated with compounds of interest using a 10-point half-log dilution series in duplicate for 72 hours, with the highest dose set at […]. CellTiter-Glo® reagent was then added and luminescence signals were measured using an EnVision™ Multimode plate reader (Perkin Elmer, Santa Clara, CA). For data normalization, cells untreated with the test compounds at Time=72 hours were set to 100% (equivalent to maximal cell growth after 72 hours); cells untreated with the test compounds at Time=0 hours were set to 0% (equivalent to cytostasis); and media-only wells were set to −100% (equivalent to complete cytotoxicity). % Viability was determined by normalizing the signal with positive and DMSO treated negative controls on the same microtiter plate. The half-maximal inhibition of cell growth (GI50) is computed from where the fitted curve crosses 50% while the half-maximal lethal dose (LD50) is computed from where the fitted curve crosses −50%.

pY1068 EGFR WT = biological target: T1, pY1068 EGFR WT (Homo sapiens, UniProt P00533); assay: Phospho-EGFR (pY1068) inhibition HTRF, A431; format: cell-based; conditions: A431 (wild-type), 6 hours; read-out: pEGFR IC50
T1 construct: A431 (harboring EGFR wildtype) was purchased from ATCC; host or cells: A431
T1 sequence (P00533 25-1210): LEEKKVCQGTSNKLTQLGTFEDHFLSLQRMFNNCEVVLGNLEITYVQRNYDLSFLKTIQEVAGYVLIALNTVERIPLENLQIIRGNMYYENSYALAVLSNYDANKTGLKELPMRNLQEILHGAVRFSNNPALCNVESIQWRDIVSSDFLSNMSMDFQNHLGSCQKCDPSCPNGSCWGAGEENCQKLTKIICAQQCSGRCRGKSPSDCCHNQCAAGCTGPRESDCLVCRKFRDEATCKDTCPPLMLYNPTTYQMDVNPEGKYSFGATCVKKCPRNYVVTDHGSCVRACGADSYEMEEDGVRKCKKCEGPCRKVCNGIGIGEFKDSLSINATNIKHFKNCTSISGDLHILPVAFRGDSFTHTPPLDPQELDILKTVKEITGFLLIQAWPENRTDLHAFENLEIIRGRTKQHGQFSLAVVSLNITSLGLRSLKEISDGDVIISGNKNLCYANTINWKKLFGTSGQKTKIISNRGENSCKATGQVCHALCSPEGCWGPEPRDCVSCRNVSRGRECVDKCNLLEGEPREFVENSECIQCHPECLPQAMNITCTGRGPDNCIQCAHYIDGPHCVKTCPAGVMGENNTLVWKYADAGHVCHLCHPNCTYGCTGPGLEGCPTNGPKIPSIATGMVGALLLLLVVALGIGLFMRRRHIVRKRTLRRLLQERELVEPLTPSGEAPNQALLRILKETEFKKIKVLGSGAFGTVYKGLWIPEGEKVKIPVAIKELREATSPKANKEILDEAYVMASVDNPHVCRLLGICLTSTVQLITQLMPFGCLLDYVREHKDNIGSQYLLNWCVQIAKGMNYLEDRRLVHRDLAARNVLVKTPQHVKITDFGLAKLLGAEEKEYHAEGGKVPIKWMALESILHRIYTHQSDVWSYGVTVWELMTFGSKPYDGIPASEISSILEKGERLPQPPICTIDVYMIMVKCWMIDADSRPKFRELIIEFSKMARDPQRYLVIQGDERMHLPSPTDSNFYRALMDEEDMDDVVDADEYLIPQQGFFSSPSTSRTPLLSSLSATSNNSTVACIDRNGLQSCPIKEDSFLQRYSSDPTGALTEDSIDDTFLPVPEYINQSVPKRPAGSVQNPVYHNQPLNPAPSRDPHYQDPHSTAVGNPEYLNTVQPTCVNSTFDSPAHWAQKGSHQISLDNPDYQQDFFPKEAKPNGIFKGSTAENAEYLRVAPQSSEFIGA
Description: (§3) NCI-H1975 (harboring EGFR heterozygous L858R-T790M mutations) and NCI-H3255 (harboring EGFR heterozygous L858R mutation) were purchased from ATCC and NCI, respectively. NCI-H1975+CS (harboring EGFR heterozygous L858R-T790M-C797S mutations) was generated using CRISPR technology to introduce the additional C797S mutation by Horizon Discovery. A431 (harboring EGFR wildtype) was purchased from ATCC. RPMI 1640 no-phenol red medium and fetal bovine serum (FBS) were purchased from Gibco (Grand Island, NY, USA). Cell culture flasks and 384-well microplates were acquired from VWR (Radnor, PA, USA). Phosphorylated (pY1068) EGFR and Total EGFR (using L858R-specific detection antibody and pan-EGFR antibody for EGFR mutant cell lines and EGFR wild-type cell lines, respectively) HTRF assay kits were purchased from Cisbio (Bedford, MA, USA).
Degradation of EGFR protein containing L858R mutation or wild-type was determined based on quantification of FRET signal using a Total EGFR (L858R-specific or pan-EGFR detecting) HTRF assay kit. Phospho-EGFR (pEGFR) inhibition was determined based on quantification of FRET signal using a pY1068 EGFR HTRF assay kit. In separate assay plates, test compounds were added to the 384-well plate from a top concentration of 10 μM with 11 points, half log titration in duplicates. […] FRET signal was acquired on EnVision™ Multilabel Reader (PerkinElmer, Santa Clara, CA, USA). […]

pY1068 EGFR L858R-T790M = biological target: T2, pY1068 EGFR L858R-T790M (Homo sapiens, UniProt P00533, L858R/T790M); assay: Phospho-EGFR (pY1068) inhibition HTRF, NCI-H1975; format: cell-based; conditions: 6 hours, read-out: pEGFR IC50
T2 construct: NCI-H1975 (harboring EGFR heterozygous L858R-T790M mutations); host or cells: NCI-H1975
T2 sequence (P00533 25-1210 T790M/L858R): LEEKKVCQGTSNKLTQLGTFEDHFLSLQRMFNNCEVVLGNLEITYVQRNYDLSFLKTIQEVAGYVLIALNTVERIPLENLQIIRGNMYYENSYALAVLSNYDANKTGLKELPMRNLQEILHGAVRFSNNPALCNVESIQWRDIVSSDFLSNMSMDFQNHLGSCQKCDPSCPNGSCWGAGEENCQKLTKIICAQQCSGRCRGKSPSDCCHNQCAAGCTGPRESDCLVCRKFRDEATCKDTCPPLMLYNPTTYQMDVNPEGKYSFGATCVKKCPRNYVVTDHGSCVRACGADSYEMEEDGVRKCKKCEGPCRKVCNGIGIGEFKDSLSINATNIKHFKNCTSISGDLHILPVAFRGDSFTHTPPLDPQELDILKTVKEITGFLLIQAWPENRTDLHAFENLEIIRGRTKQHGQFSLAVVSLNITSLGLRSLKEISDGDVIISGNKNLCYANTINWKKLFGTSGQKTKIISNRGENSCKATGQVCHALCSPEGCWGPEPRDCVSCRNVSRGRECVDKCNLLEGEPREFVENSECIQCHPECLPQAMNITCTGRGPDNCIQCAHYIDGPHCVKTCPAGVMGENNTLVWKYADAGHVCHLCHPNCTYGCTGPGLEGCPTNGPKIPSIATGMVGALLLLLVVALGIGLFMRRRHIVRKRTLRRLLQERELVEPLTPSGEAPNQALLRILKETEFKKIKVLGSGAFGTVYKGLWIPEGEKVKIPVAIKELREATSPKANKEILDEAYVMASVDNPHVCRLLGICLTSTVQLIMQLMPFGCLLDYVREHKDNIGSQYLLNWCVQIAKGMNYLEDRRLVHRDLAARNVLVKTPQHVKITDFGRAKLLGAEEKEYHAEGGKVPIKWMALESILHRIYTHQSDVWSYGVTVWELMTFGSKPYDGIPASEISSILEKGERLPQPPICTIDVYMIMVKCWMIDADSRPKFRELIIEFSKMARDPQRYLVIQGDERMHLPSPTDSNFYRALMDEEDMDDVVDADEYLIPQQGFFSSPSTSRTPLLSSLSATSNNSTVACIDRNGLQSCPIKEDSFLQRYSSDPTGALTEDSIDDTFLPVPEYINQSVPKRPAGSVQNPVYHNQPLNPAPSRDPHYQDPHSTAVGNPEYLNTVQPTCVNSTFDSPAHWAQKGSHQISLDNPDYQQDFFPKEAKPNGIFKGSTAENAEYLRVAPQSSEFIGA
Description: as §3
Degradation of EGFR protein containing L858R mutation or wild-type was determined based on quantification of FRET signal using a Total EGFR (L858R-specific or pan-EGFR detecting) HTRF assay kit. Phospho-EGFR (pEGFR) inhibition was determined based on quantification of FRET signal using a pY1068 EGFR HTRF assay kit. In separate assay plates, test compounds were added to the 384-well plate from a top concentration of 10 μM with 11 points, half log titration in duplicates. For each assay, 12.5 uL of cells suspended in assay media (RPMI 1640 no-phenol red medium+10% FBS) at cell densities indicated for each cell line in Table 8 below were dispensed using a multi-channel pipette to 384-well low volume white HTRF microplates containing a duplicate concentration range of test compounds and DMSO controls. The plates were kept at 37° C. with 5% CO2 for 6 hours and then incubated with either phospho EGFR or Total EGFR HTRF detection antibodies according to the cell line and EGFR mutant being assayed. Cells treated in the absence of the test compound were the negative control. Positive control was set by wells containing all reagents but no cells. FRET signal was acquired on EnVision™ Multilabel Reader (PerkinElmer, Santa Clara, CA, USA). Compound concentration that achieves 50% degradation and inhibition was reported as DC50 and IC50, respectively.

[2] = system: BaF3 cells expressing EGFR L858R-T790M; assay: Ba/F3 EGFR cell viability (CellTiter-Glo), L858R-T790M; format: cell-based; conditions: Mus musculus, read-out: CTGlo (GI50)
Description: as §1, §2

[3] = system: engineered triple mutant EGFR (L858R-T790M-C797S) BaF3 tumors; assay: BaF3 triple mutant EGFR allograft efficacy; format: in vivo, female BALB/c nude mice; conditions: for efficacy on BaF3 tumor volume: Compound 1 or 2 at 20, 50, 100 mg/kg/day PO BID, osimertinib 25 mg/kg/day PO QD, 14 days
Protocol: Each Compound was administered BID (twice a day) orally (PO).
Tumor volume was measured twice weekly in two dimensions using calipers, and volume (mm^3) was calculated using the formula: V=0.5 a×b^2 where a and b are the long and short diameters of the tumor in mm, respectively. […] Treatment began on Day 0 with established subcutaneous BaF3 tumors with a mean tumor volume (MTV) of 108 mm^3.
Body weight and MTV were measured on a 2× weekly schedule. Statistical analysis was performed using a one-way ANOVA followed by Dunnett's multiple comparison test. Data are expressed as MTV±SEM.

EGFR L858R-T790M-C797S = biological target: T3, EGFR L858R-T790M-C797S (Homo sapiens, UniProt P00533, C797S/L858R/T790M); assay: EGFR degradation, Total EGFR (L858R-specific) HTRF, NCI-H1975+CS; format: cell-based; conditions: 6 hours
T3 construct: generated using CRISPR technology to introduce the additional C797S mutation by Horizon Discovery; host or cells: NCI-H1975+CS (CRISPR knock-in of C797S)
T3 sequence (P00533 25-1210 T790M/C797S/L858R): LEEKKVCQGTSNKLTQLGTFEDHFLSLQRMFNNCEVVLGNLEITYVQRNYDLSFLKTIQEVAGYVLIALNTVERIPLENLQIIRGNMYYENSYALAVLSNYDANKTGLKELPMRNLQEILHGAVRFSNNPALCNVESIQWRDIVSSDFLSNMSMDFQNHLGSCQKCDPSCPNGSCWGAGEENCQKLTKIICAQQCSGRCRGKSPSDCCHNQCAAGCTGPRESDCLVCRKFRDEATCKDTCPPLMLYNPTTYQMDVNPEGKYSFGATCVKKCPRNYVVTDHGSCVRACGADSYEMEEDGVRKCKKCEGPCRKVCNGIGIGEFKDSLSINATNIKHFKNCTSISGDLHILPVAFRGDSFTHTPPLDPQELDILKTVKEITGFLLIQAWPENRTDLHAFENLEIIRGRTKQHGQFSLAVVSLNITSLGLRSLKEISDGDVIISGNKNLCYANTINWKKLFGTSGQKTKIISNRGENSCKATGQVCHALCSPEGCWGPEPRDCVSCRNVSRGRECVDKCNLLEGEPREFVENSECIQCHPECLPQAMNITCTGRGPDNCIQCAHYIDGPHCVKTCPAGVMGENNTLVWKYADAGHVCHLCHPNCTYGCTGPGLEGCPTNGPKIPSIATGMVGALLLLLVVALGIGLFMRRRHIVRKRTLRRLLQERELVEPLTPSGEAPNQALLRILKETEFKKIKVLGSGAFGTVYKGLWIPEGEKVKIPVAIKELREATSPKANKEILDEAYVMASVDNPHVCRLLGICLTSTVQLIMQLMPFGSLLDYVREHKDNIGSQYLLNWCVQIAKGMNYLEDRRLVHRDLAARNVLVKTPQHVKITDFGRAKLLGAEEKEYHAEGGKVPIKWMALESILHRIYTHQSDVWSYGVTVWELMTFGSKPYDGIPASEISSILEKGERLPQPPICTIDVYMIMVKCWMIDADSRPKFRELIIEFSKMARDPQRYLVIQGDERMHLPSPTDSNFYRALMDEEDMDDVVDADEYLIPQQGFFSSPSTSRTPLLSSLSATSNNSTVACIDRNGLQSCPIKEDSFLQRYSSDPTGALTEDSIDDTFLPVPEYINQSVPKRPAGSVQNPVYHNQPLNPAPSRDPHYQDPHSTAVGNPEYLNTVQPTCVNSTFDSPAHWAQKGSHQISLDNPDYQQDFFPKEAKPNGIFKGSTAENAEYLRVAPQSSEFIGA
Summary of the method: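 HTRF read-outs: pY1068 phospho-EGFR for IC50; total EGFR (pan-EGFR in A431, L858R-specific in mutant lines) for DC50. Compounds were titrated 11 points, half-log, from 10 μM in duplicate onto cells in 10% FBS RPMI, incubated 6 h at 37°C.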

[4] = system: BaF3 cells expressing EGFR L858R-T790M-L718Q; assay: Ba/F3 EGFR cell viability (CellTiter-Glo), L858R-T790M-L718Q; format: cell-based; conditions: Mus musculus, read-out: CTGlo (GI50)
Description: as §1, §2

[5] = system: BaF3 cells expressing EGFR L858R-T790M-C797S; assay: Ba/F3 EGFR cell viability (CellTiter-Glo), L858R-T790M-C797S; format: cell-based; conditions: Mus musculus, read-out: CTGlo (GI50)
Description: as §1, §2

[6] = system: BaF3 cells expressing EGFR L858R-L718Q; assay: Ba/F3 EGFR cell viability (CellTiter-Glo), L858R-L718Q; format: cell-based; conditions: Mus musculus, read-out: CTGlo (GI50)
Description: as §1, §2

[7] = H1975 + CS (L858R-T790M-C797S), read-out: tEGFR DC50
[8] = Table 9A, NCI-H1975+CS cells, Total EGFR HTRF, read-out: H1975+ CS EGFR DC50

O=C1CC[C@H](Nc2ccc(N3CCC(O)(CC(=O)N4CC5(C4)CN(c4ccc(-c6cc(F)c7c(c6)C(=O)N(C(C(=O)Nc6nccs6)c6ncn8c6CCC8)C7)cc4)C5)CC3)c(F)c2)C(=O)N1 (stereo partly drawn) [Compound 1, 2-(6,7-dihydro-5H-pyrrolo[1,2-c]imidazol-1-yl)-2-[6-[4-[2-[2-[1-[4-[[(3S)-2,6-dioxo-3-piperidyl]amino]-2-fluoro-phenyl]-4-hydroxy-4-piperidyl]acetyl]-2,6-diazaspiro[3.3]heptan-6-yl]phenyl]-4-fluoro-1-oxo-isoindolin-2-yl]-N-thiazol-2-yl-acetamide]
GI50 [1]: 5 nM
pIC50 (pY1068 EGFR WT): < 5.00
pIC50 (pY1068 EGFR L858R-T790M): 8.05
GI50 [2]: 9 nM
tumor regression ([3]; BaF3 EGFR-L858R-T790M-C797S allograft mouse model, oral dosing): 60%
efficacy on BaF3 tumor volume [3]: reduced tumor volume
DC50 (EGFR L858R-T790M-C797S; [7]): 12 nM
DC50 (EGFR L858R-T790M-C797S; [8]): < 50 nM
GI50 [4]: 44 nM
GI50 [5]: 7 nM
GI50 [6]: 24 nM

Cn1nc(N2CCC(=O)NC2=O)c2ccc([C@H]3CCN(CC(=O)N4CC5(C4)CN(c4ccc(-c6cc(F)c7c(c6)C(=O)N(C(C(=O)Nc6nccs6)c6ncn8c6CCC8)C7)cc4)C5)CC3(F)F)cc21 (stereo partly drawn) [Compound 2, 2-(6,7-dihydro-5H-pyrrolo[1,2-c]imidazol-1-yl)-2-[6-[4-[2-[2-[(4R)-4-[3-(2,4-dioxohexahydropyrimidin-1-yl)-1-methyl-indazol-6-yl]-3,3-difluoro-1-piperidyl]acetyl]-2,6-diazaspiro[3.3]heptan-6-yl]phenyl]-4-fluoro-1-oxo-isoindolin-2-yl]-N-thiazol-2-yl-acetamide]
GI50 [1]: 3 nM
pIC50 (pY1068 EGFR WT): < 5.00
pIC50 (pY1068 EGFR L858R-T790M): 7.85
GI50 [2]: 6 nM
efficacy on BaF3 tumor volume [3]: reduced tumor volume
DC50 (EGFR L858R-T790M-C797S; [7]): 19 nM
DC50 (EGFR L858R-T790M-C797S; [8]): < 50 nM
GI50 [4]: 22 nM
GI50 [5]: 5 nM
GI50 [6]: 6 nM
